Where “and” joins values, the source holds several entries; their conditions need not be identical. Identical values can stand only once.
Tests used:
[1] = tested on: human PSMA; assay: IFNγ ELISPOT of splenocytes, PSMA DNA constructs by PMED in Pasteur (HLA A2/DR1) mice; assay type: in vivo, mouse; details: positive SFC>50
Source text: Two human HLA transgenic mouse models were used to evaluate the presentation of various PSMA antigens by different HLAs and a human PSMA transgenic mouse model was used to assess the breaking of immune tolerance to human PSMA. The first HLA transgenic mouse model utilizes the HLA A2/DR1 mice (from the Pasteur Institute, Paris, France; also referred to as “Pasteur mice”). […] The second HLA transgenic mouse model uses mice that are knock in with human HLA A24 that is covalently linked to the human β-2-microglobulin at the H2bk locus. […] This model allows evaluation of antigen presentation in the context of human HLA A24.
Eight-to-10 week-old transgenic mice were immunized using PMED method with various PSMA DNA constructs in a prime/boost/boost regimen, two weeks apart between each vaccination. Alternatively, mice were primed with adenovirus vectors encoding the PSMA antigen at 1×10^9 viral particles in 50 μl (PBS) by intramuscular injection. The adenovirus vector (pShuttle-CMV vector from Stratagene) was modified to contain NheI and BgIII restriction sites within the multiple cloning site. The DNA encoding human PSMA modified was then restriction digested with NheI and BgIII, ligated into this vector and sequence confirmed. The pShuttle human PSMA modified vector was then recombined with the pAdEasy-1 vector and virus was propagated according to the AdEasy system (Stratagene). Twenty-days later, they were boosted with PMED as described above. In each of the regimens used, antigen specific T cell response was measured 7 days after the last immunization in an interferon-gamma (IFNγ) ELISPOT assay. The ELISPOT assay is similar to the sandwich enzyme-linked immunosorbent assay (ELISA). Briefly, a capture antibody specific to IFNγ BD Bioscience, #51-2525kc) is coated onto a polyvinylidene fluoride (PVDF) membrane in a microplate overnight at 4° C. The plate is blocked with serum/protein to prevent nonspecific binding to the antibody. After blocking, effector cells (such as splenocytes isolated from PSMA immunized mice) and targets (such as PSMA peptides from peptide library, target cells pulsed with peptides or tumor cells expressing the relevant antigens) or mitogen (which will stimulate splenocytes non-specifically to produce IFNγ[…] are added to the wells and incubated overnight at 37° C. in a 5% CO2 incubator. Cytokine secreted by effector cells are captured by the coating antibody on the surface of the PVDF membrane. After removing the cells and culture media, 100 μl of a biotinylated polyclonal anti-mouse IFNγ antibody (0.5 mg/ml-BD Bioscience, #51-1818 kz) was added to each of the wells for detection. The spots are visualized by adding streptavidin-horseradish peroxidase (HRP, BD Bioscience, #557630) and the precipitate substrate, 3-amino-9-ethylcarbazole (AEC), to yield a red color spot. Each spot represents a single cytokine producing T cell. In general, in the studies disclosed here the ELISpot assay was set up as follows: 5×10^5 splenocytes from PSMA immunized mice were cultured (1) in the presence of PSMA specific peptides derived from a PSMA peptide library (see Table 16) made of 15-amino acid peptides overlapping by 11 amino acids, (2) with known HLA A2.1 restricted PSMA specific peptides, or (3) with tumor cells. To measure the recognition of endogenous antigen presentation, splenocytes were cultured with a human HLA A2 prostate cancer cells (i.e. LNCaP, available from ATCC) that naturally express PSMA or cultured with HLA A2 tumor cells transduced with adenovirus encoding and thus expressing the human PSMA modified antigen. In addition, human PSMA ECD protein was added to the ELISpot assay to measure specifically CD4 IFNγ[…] producing cells. For controls where appropriate, HLA A2 restricted HER-2 specific peptide p168-175 or tumor cells not expressing PSMA or irrelevant protein such as BSA were used as a negative control in the IFNγ […]ELISpot assay. […]

[2] = tested on: rhesus PSMA; assay: IFNγ ELISPOT of PBMCs, PSMA vaccine with or without anti-CTLA-4 in Indian rhesus macaques, rhesus PSMA recall antigens; assay type: in vivo; details: Group 2, vaccine + CpG 3 mg intradermal + aCTLA4 10 mg/kg intravenous (IV), normalized to 1e6 PBMCs, one cell per animal
Source text: Three groups of male Indian rhesus macaques, five to six (#1 to 5 or 6) per each test group, were immunized with a nucleic acid (SEQ ID NO: 10) that encodes a human PSMA modified antigen (SEQ ID NO: 9) delivered by adenovirus (1e11 V.P. injected intramuscularly) followed by 2 DNA immunizations (8 actuations/immunization, 4 actuations per each right and left side of the lower abdomen) by PMED with 6 and 9 week intervals respectively. Animals in Groups 2 and 3 additionally received bilateral intradermal injections of 3 mg of CpG (PF-03512676) subsequently after the PMED immunization in proximity to each inguinal draining lymph node. Group 2 also received intravenous injections of anti-CTLA-4 monoclonal antibody (CP-675, 206) at 10 mg/kg and group 3 received intradermal injections of anti-CTLA-4 monoclonal antibody (CP-675, 206) at 5 mg/kg in proximity to each left and right inguinal vaccine draining lymph node at the time of the second PMED immunization.
Peripheral blood samples were collected from each animal sixteen days after the last PMED immunization. Peripheral blood mononuclear cells (PBMCs) were isolated from the samples and were subjected to an IFNγ ELISPOT assay to measure the PSMA specific T cell responses. […] The number of IFNγ spot forming cells (SFC) were counted by CTL reader. […]

Row | Substance | IFN-γ SFC/1 × 10^6 splenocytes ([1]; Table 2, HLA A2.1 restricted peptide PSMA p275, ( ) = standard deviation) | IFN-γ SFC/1 × 10^6 splenocytes ([1]; Table 2, HLA A2.1 restricted peptide PSMA p627, ( ) = standard deviation) | IFN-γ SFC/1 × 10^6 splenocytes ([1]; Table 2, HLA A2.1 restricted peptide PSMA p662, ( ) = standard deviation) | IFN-γ SFC/1 × 10^6 splenocytes ([1]; Table 2, HLA A2.1 restricted peptide PSMA p663, ( ) = standard deviation) | IFN-γ SFC/1 × 10^6 splenocytes ([1]; Table 2, PC3 tumor cells (no PSMA, negative control), ( ) = standard deviation) | IFN-γ SFC/1 × 10^6 splenocytes ([1]; Table 2, PSMA ECD protein, ( ) = standard deviation) | IFN-γ SFC/1 × 10^6 splenocytes ([1]; Table 2, PSMA+ HLA A2.1 LNCaP tumor cells, ( ) = standard deviation) | IFN-γ SFC/1 × 10^6 splenocytes ([1]; Table 2, target peptide PSA p64, ( ) = standard deviation) | PSMA specific IFNγ SFC, recall antigen R1 [2] | PSMA specific IFNγ SFC, recall antigen rPSMA protein [2]
1 | PSMA modified: membrane-bound polypeptide of amino acids 15-750 of human PSMA, SEQ ID NO: 9; tested as DNA construct | 304 (21) SFC/1 × 10^6 splenocytes | 222 (14) SFC/1 × 10^6 splenocytes | 925.1 (77) SFC/1 × 10^6 splenocytes | 1524.9 (45) SFC/1 × 10^6 splenocytes | 1 (1) SFC/1 × 10^6 splenocytes | 731 (16) SFC/1 × 10^6 splenocytes | 96 (12) SFC/1 × 10^6 splenocytes | 2 (4) SFC/1 × 10^6 splenocytes |  | 
2 | Tremelimumab: fully human IgG2 anti-CTLA-4 monoclonal antibody, CAS 745013-59-6, SEQ ID NOs:42 and 43 |  |  |  |  |  |  |  |  | 6.3 SFC and 0.0 SFC and 22.5 SFC and 26.3 SFC and 97.5 SFC | 0.0 SFC and 3.8 SFC and 1.3 SFC and 2.5 SFC and 20.0 SFC

— US11110158B2, “Prostate-associated antigens and vaccine-based immunotherapy regimens” (Pfizer Inc., priority 2012, dated 2021)
